{
  "source": "patent US10300049B2",
  "about": "“Myeloid differentiation inducing agents” (CASE WESTERN RESERVE UNIVERSITY, priority 2007, dated 2019)",
  "key": {"HL-60 cells [1]": {"test_system": "HL-60 cells", "test": "Cell cycle, propidium iodide flow cytometry", "format": "cell-based, human", "settings": "4 days", "method": "HL-60 cells were treated with the indicated compounds for 4 days and the cells were stained with propidium iodide and analyzed by flow cytometry."}, "HL-60 cells [2]": {"test_system": "HL-60 cells", "test": "Morphology, cytospin with Wright-Giemsa stain", "format": "cell-based, human", "settings": "4 days", "method": "HL-60 cells were treated with the indicated compounds for 4 days. Cytospin preparations were prepared and the cells were stained with Wright-Giemsa stain."}, "HL-60 cells [3]": {"test_system": "HL-60 cells", "test": "NBT reduction assay of differentiation in HL-60 cells", "format": "cell-based, human", "text": "The NBT screen works due to changes in the oxidoreductases during differentiation that lead to increases in rates of NBT reduction. NBT is reduced due to the production of superoxide that is catalyzed by an NADPH oxidase. […] A quantitative NBT reduction assay is ideal for this type of screen as it is simple, sensitive, quantitative, requires minimal cells, has been proven to have low well to well variability, and the amount of reduced NBT is proportional to the number of cells reducing the dye as well as the amount reduced by each cell.\n[…] […] Differentiation is determined in the 96 well plates by incubating the cells with 1 mg/ml of NBT and 200 ng/ml of PMA as the stimulant for the respiratory burst for 35 minutes at 37° C. The reaction can then be stopped with HCL and the formazan will be solubilized with DMSO. Finally, the reaction mixture will be read spectrophotometricaly at 560 nm in a plate reader.\n[…] […] Differentiation is determined in the 96 well plates by incubating the cells with 1 mg/ml of NBT and 200 ng/ml of PMA as the stimulant for the respiratory burst for 35 minutes at 37° C. The reaction will then be stopped with HCL and the formazan will be solubilized with DMSO. Finally, the reaction mixture will be read spectrophotometricaly at 560 nm in a plate reader.\nThe assays are done using the colorimetric process. The NBT reduction assay measures the respiratory burst and is done by stimulating the respiratory burst in cells with PMA and then looking for a color change in the NBT dye."}, "HL-60 cells [4]": {"test_system": "HL-60 cells", "test": "Flow cytometry of CD11b and CD14 cell surface markers", "format": "cell-based, human", "description": "HL-60 cells were treated with the indicated compounds for 4 days, the cells were stained with CD11b-PE and CD14-FITC, and flow cytometric analysis was performed."}, "[5]": {"settings": "known; cited from earlier work"}, "CEBPβ": {"test_system": "CEBPβ", "test": "CEBPβ expression by real time PCR in HL-60 cells", "format": "cell-based, human", "settings": "1, 3, or 5 days", "description": "(§1) FIG. 11 illustrates graphs showing securinine and 6BT downregulate c-myc expression and upregulate CEBPB. HL-60 cells were treated with the indicated compounds for 1, 3, or 5 days and total RNA was prepared. The relative expression of c-myc and CEPβ was determined by real time PCR."}, "Bcl-2": {"test_system": "Bcl-2", "test": "Bcl-2 Western blot in HL-60 cells", "format": "cell-based, human", "settings": "1, 3, or 5 days", "description": "(§2) HL-60 cells were treated with the indicated compounds for 1, 3, or 5 days and cells were lysed. Western blot analysis was performed with p21, Bcl-2, and actin antibodies."}, "[6]": {"test_system": "normal human lymphocytes, normal human bone marrow, mouse embryonic fibroblasts, and human umbilical vein endothelial cells", "test": "Toxicity on normal cells", "format": "cell-based", "text": "In order to further assess the toxicity of 6BT and Securinine, normal human lymphocytes, normal human bone marrow, mouse embryonic fibroblasts, and human umbilical vein endothelial cells were examined."}, "c-myc": {"test_system": "c-myc", "test": "c-myc expression by real time PCR in HL-60 cells", "format": "cell-based, human", "settings": "1, 3, or 5 days", "description": "as §1"}, "[7]": {"test_system": "primary patient leukemic samples", "test": "Differentiation and cell death in other AML cell lines and primary patient leukemic samples", "format": "cell-based, human", "description": "FIGS. 7(A-B) illustrate 6BT and securinine have potent differentiation and cell death effects on primary leukemic samples. Primary patient leukemic samples were stained with CD34+ and sorted by flow cytometry. Leukemic cells were treated with the indicated compounds (6BT […]) for up to 7 days. A. Representative pictures showing morphological differentiation of primary patient samples B. 6BT and Securinine treated primary leukemic cells show either differentiation by NBT reduction or cell death.\nIn several cases, the compounds were able to induce a higher amount of differentiation than ATRA. It should be noted, that though ATRA is only clinically useful for APL, it is well known to potently induce the differentiation of many other AML cell lines in vitro. […] Though the exact mechanisms are not yet clear, certain leukemic cells appear to preferentially undergo cell death in response to 6BT and Securinine prior to full differentiation.\nWe then tested the effects of securinine on patient samples. […] Unfortunately, many of the patient samples were not suitable for analysis. A significant portion of the cells that were obtained were either nonviable or contaminated with bacteria."}, "OCI-AML3 cells": {"test_system": "OCI-AML3 cells", "test": "NBT reduction assay in OCI-AML3 cells", "format": "cell-based", "settings": "4 days", "description": "The two most promising compounds (compound 2A and compound 2B) were further tested for their differentiation activity in several additional AML cell lines as compared to securinine (FIG. 17). […] In all three cell lines tested, a dose of only 2.5 uM of compound 2B was sufficient to induce nearly complete differentiation.\nThe above indicated cells were treated for 4 days and the NBT reduction assay was performed. The X-axis refers to the cell treatments and the Y-axis denotes the percentage of differentiation as measured by the NBT Reduction assay."}, "[8]": {"test": "Toxicity, tolerability and seizures in mice", "description": "(§3) In order to further assess the in vivo potential of 6BT and Securinine, mouse xenograft experiments were performed. In the first model, the ability of 6BT and Securinine to inhibit established HL-60 subcutaneous leukemic tumor growth in nude mice was assessed. […] In the second model system, the ability of 6BT to prevent either HL-60 or MV-411 tumor formation in nude mice was assessed.\n(§4) This Example assed the effects of securinine and its analogues in mice. […] HL-60 cell is an AML cell line commonly used for in-vitro studies and typically they are classified as M2 subtype. […] Therefore this was the highest dose that could be safely utilized.\nWe performed a preliminary test with the two most promising analogues, compound 2A and compound 2B to verify their safety."}, "60 cancer cell lines": {"test_system": "60 cancer cell lines", "settings": "highest concentration used 100 μM; cited from earlier work"}, "[9]": {"test_system": "HL-60 subcutaneous tumors", "test": "Established HL-60 subcutaneous tumor xenograft in nude mice", "format": "in vivo", "description": "Nude mice (5 per experimental group) were injected with 5×10^7 HL-60 cells bilaterally into the flank. 9 days after tumor cell inoculation, the indicated drugs were injected I.P. three times a week for 3 weeks. […] Representative picture of the mice at the end of the study period (B). Representative picture of tumors dissected from the indicated mice. (C). Average weights of tumors dissected from all mice (D).\nas §3, §4\nNext we repeated the mouse xenograft experiments using i.p. drug administration (20 mg/kg), but with twice a day dosing again using HL-60 cell tumors.\nSecurinine (20 mg/kg) or vehicle ([…]) was injected i.p. into mice starting 10 days after HL-60 cell inoculation bilaterally into the flanks of nude mice (5 mice per group)."}, "p21": {"test_system": "p21", "test": "p21 Western blot in HL-60 cells", "format": "cell-based, human", "settings": "1, 3, or 5 days", "description": "as §2"}, "p44/p42 and p38": {"test_system": "p44/p42 and p38", "test": "Phospho-specific Western blot of p44/p42 and p38 in HL-60 cells", "format": "cell-based, human", "settings": "15 to 60 minutes", "description": "FIG. 13 illustrates an immunoblot showing 6BT and Securinine activate both p44/p42 and p38. HL-60 cells were treated with the indicated compounds for 15, 20, 46, or 60 minutes and the cells were lysed. Western blot analysis was performed with phospho-specific antibodies to p44/p42 and p38 as well as the actin anibody."}, "p38delta": {"test_system": "p38delta", "test": "Gene expression (microarray, real time PCR) in HL-60 cells", "format": "cell-based, human", "description": "FIG. 14 illustrates graphs showing 6BT and securinine regulate the expression of genes that may play important roles in myeloid differentiation. HL-60 cells were treated with the indicated compounds for 1 or 3 days and total RNA was prepared. The relative expression of the indicated genes was assessed by real time PCR.\nIn order to further assess the signaling pathways of 6BT and securinine as well as to further elucidate the myeloid differentiation program in general, gene microarray studies were performed. These initial studies assessed the gene expression pattern at 16 and 72 hours after treatment. […] Several of these genes are known to be involved in the differentiation of non-hematopoietic cells such as neuron, muscle, and or keratinocyte differentiation. Selected examples of genes whose expression is strongly regulated by securinine and 6BT that have been verified is seen in […]."}},
  "data": [
    {"smiles": "O=C1C=C2C=C[C@@H]3C[C@@]2(O1)[C@H]1CCCCN31", "note": "[Securinine]", "values": [
      {"measurement": "cell cycle phase in which cells accumulate", "setting": "HL-60 cells [1]", "value": "accumulation of cells in G0/G1"},
      {"measurement": "morphologic changes", "setting": "HL-60 cells [2]", "value": "clear morphologic changes suggestive of monocytic differentiation"},
      {"measurement": "cells differentiated, NBT reduction assay", "setting": "HL-60 cells [3]; HL-60 cells, 4 days (FIG. 3)", "value": "~95", "unit": "%"},
      {"measurement": "concentration at which significant differentiation or cell death effects upon the leukemic cells occur", "setting": "HL-60 cells [3]; leukemic cells in our studies", "value": "~10", "unit": "µM"},
      {"measurement": "enhancement of differentiation induced by ATRA and decitabine", "setting": "HL-60 cells [3]; low concentrations, NBT reduction assay", "value": "capable of enhancing the differentiation induced by both ATRA and decitabine"},
      {"measurement": "CD11b positive", "setting": "HL-60 cells [4]; 10 μM, 4 days", "value": 87, "unit": "%"},
      {"measurement": "CD14 positive", "setting": "HL-60 cells [4]; 10 μM, 4 days", "value": 86, "unit": "%"},
      {"measurement": "synergy in upregulation of CD11b", "setting": "HL-60 cells [4]; with ATRA and decitabine, data not shown", "value": "synergize in the upregulation of CD11b"},
      {"measurement": "metabolism in vivo", "setting": "[5]", "value": "extremely rapid metabolism in vivo"},
      {"measurement": "seizures", "setting": "[5]", "value": "lead to seizures"},
      {"measurement": "CEBPβ expression", "setting": "CEBPβ", "value": "time-dependent upregulation of CEBPβ"},
      {"measurement": "Bcl-2 protein level", "setting": "Bcl-2", "value": "downregulation of Bcl-2"},
      {"measurement": "toxicity on normal cells", "setting": "[6]", "value": "induced cell death occurred at doses higher than those required for activity on leukemia cells"},
      {"measurement": "c-myc expression", "setting": "c-myc", "value": "potently downregulate c-myc"},
      {"measurement": "cell death of specific leukemic cell lines and primary patient samples", "setting": "[7]", "value": "quicly undergo cell death"},
      {"measurement": "differentiation of other AML cell lines and primary patient leukemic samples", "setting": "[7]; 6BT 10 mM, Securinine 15 mM, up to 7 days (FIG. 7)", "value": "effective in differentiating other AML cell lines besides HL-60 cells, as well as primary patient leukemic samples"},
      {"measurement": "leukemia patient samples in which differentiation was induced", "setting": "[7]; samples suitable for analysis", "value": "8 of 10"},
      {"measurement": "differentiation activity in OCI-AML3 cells", "setting": "OCI-AML3 cells", "value": "modest differentiation activity"},
      {"measurement": "toxicity in mice", "setting": "[8]; 20 mg/kg", "value": "no evident toxicities"},
      {"measurement": "seizures in mice", "setting": "[8]; dose approximately two fold higher than 20 mg/kg", "value": "lead to seizures"},
      {"measurement": "average LD50 across the 60 cancer cell lines", "setting": "60 cancer cell lines", "value": 97, "unit": "µM"},
      {"measurement": "average tumor size smaller than vehicle treated mice at end of study", "setting": "[9]; 20 mg/kg i.p. twice a day", "value": "more than 75%"},
      {"measurement": "effect on growth of HL-60 subcutaneous tumors", "setting": "[9]; 20 mg/kg once a day", "value": "could not detect any significant effects"},
      {"measurement": "inhibition of established HL-60 subcutaneous leukemic tumor growth", "setting": "[9]; first model, I.P. three times a week for 3 weeks from day 9", "value": "not Securinine was found to have significant in vivo activity"},
      {"measurement": "p21 protein level", "setting": "p21", "value": "upregulated"},
      {"measurement": "phosphorylation of p44/p42 and p38", "setting": "p44/p42 and p38", "value": "rapid phosphorylation of p44/p42 and p38"},
      {"measurement": "p38delta expression", "setting": "p38delta", "value": "upregulated"}
    ]}
  ]
}
